Laboratory results published in publication PMC5862592, “CDK8/19 inhibition induces premature G1/S transition and ATR-dependent cell death in prostate cancer cells” (Oncotarget, 2018).
Like-named read-outs stand apart in the source and are kept apart here.

Assays:
[1] = molecular target: T1, HASPIN (Homo sapiens, UniProt Q8TF76); experiment: KINOMEscan competition binding at a single concentration ([…]); conditions: read-out: % inhibition at 300 nM
[2] = molecular target: T2, CDK19 (Homo sapiens, UniProt Q9BWU1); experiment: TR-FRET ligand displacement assay (Kinase Tracer […], Tb-anti-GST); also KINOMEscan […] inhibition at […]; type: binding
T2 construct: GST-CDK19; with Cyclin C

[3] = molecular target: T1, HASPIN; experiment: biochemical; parameters: KINOMEscan active site-directed competition binding assay (DiscoveRx), 456 kinases, per cent of control at 300 nM; conditions: sheet T-418; read-out: Percent of Control (%)
In short: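 Compounds at 300 nmol/L screened against 456 kinases by KINOMEscan, a competition binding assay measuring displacement at the kinase active site.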

[4] = molecular target: CDK8 (Homo sapiens, UniProt P49336); experiment: TR-FRET ligand displacement assay (Kinase Tracer […], Tb-anti-GST); type: binding; parameters: GST-CDK8; with Cyclin C
[5] = molecular target: T2, CDK19; experiment: TR-FRET ligand displacement assay (Kinase Tracer […], Tb-anti-GST); also KINOMEscan […] inhibition at […]; type: binding; remark: listed apart in the source

T2 sequence (Q9BWU1 whole entry): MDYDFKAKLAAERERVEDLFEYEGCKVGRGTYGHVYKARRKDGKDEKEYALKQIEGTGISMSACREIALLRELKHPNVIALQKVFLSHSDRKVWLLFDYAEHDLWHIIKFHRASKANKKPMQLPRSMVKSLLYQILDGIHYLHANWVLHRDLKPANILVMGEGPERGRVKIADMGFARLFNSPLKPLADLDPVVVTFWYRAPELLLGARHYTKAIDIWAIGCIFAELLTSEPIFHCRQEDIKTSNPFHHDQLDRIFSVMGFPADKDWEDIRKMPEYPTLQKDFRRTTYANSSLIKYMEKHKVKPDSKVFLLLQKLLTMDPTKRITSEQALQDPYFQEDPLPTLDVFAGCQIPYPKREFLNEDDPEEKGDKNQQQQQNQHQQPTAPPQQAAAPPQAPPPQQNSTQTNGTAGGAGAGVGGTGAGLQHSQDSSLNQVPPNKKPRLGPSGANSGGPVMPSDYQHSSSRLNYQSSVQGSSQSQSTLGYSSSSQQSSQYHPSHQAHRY
T2 sequence (P24863 whole entry partner): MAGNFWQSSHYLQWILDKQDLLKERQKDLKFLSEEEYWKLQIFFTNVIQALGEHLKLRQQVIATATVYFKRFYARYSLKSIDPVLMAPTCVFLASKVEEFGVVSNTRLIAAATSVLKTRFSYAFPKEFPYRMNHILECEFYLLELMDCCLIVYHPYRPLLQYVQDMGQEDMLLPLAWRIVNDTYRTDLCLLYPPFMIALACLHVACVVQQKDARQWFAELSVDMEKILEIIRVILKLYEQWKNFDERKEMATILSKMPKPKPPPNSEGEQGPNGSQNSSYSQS
T1 sequence (Q8TF76 whole entry): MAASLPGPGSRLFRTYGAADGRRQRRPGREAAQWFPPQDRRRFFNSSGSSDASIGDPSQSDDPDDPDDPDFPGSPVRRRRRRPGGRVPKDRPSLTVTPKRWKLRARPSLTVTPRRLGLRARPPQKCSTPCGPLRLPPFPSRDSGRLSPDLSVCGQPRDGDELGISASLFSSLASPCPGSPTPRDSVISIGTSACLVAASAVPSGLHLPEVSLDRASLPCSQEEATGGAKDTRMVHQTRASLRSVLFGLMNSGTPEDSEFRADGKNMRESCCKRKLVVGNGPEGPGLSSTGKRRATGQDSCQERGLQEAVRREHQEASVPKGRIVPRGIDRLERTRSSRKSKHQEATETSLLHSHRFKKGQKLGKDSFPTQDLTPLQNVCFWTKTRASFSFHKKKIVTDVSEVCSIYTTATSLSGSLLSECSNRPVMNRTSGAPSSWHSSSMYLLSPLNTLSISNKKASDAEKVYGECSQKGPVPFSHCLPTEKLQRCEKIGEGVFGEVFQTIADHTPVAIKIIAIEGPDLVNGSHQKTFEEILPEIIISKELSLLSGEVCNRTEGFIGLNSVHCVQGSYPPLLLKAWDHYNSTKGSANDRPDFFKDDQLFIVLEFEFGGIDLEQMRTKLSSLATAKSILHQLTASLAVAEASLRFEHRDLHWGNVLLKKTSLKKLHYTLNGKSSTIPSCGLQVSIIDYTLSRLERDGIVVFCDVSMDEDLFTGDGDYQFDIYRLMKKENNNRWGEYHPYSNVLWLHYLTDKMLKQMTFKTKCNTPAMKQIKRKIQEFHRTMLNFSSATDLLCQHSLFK
Sequence of CDK8 (P49336 whole entry): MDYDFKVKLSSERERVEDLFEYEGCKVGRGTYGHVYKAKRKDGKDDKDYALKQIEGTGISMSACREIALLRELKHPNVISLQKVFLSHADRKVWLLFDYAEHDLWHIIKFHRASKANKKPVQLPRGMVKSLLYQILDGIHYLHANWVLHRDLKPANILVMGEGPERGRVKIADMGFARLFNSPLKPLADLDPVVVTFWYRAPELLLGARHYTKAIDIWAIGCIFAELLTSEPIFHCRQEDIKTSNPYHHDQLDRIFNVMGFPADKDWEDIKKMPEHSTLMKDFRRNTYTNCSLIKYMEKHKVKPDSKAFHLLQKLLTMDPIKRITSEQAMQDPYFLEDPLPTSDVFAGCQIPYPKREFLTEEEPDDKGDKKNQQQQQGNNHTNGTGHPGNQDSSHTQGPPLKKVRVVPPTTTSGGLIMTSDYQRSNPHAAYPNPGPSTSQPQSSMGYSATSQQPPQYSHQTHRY
Sequence of CDK8 (P24863 whole entry partner): as the sequence (P24863 whole entry partner) above

Cc1ncccc1Oc1sc(C(N)=O)c2c1-c1c(cnn1C)CC2 [T-474, 1-methyl-8-((2-methylpyridin-3-yl)oxy)-4,5-dihydro-1H-thieno[3,4-g]indazole-6-carboxamide]
inhibition at 0.3 µM [1]: 99%
IC50 [2]: 1.9 nM

O=C(/C=C/c1cnccc1-c1ccc(F)cc1)Nc1ccc(CCc2nnco2)cc1 [T-418, (2E)-3-(4-(4-fluorophenyl)pyridin-3-yl)-N-(4-(2-(1,3,4-oxadiazol-2-yl)ethyl)phenyl)acrylamide]
remaining binding at 0.3 µM [3]: 90%
IC50 [4]: 23 nM
IC50 [5]: 62 nM
